{"source": "paper PMC5831858", "about": "“Pharmacological characterisation of CR6086, a potent prostaglandin E2 receptor 4 antagonist, as a new potential disease-modifying anti-rheumatic drug” (Arthritis Research & Therapy, 2018)", "key": {"5-HT transporter": {"biological_target": "5-HT transporter (Homo sapiens, UniProt P31645)", "sequence (P31645 whole entry)": "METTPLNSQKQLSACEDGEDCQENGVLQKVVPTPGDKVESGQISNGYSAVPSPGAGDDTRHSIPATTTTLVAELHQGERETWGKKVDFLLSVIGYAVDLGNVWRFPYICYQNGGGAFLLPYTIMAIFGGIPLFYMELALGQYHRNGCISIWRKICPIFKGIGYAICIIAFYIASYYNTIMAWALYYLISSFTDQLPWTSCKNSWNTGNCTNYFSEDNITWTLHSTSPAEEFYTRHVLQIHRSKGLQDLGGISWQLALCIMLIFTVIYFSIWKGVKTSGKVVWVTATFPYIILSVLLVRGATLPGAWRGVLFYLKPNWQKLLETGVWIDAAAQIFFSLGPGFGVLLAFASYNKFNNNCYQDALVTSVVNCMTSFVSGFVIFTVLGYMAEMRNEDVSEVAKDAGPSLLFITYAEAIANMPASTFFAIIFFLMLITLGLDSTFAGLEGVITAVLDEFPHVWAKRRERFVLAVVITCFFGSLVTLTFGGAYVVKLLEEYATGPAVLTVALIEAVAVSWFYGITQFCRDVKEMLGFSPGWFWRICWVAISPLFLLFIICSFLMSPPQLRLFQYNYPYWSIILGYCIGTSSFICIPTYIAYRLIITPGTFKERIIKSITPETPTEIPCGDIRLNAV", "test": "5-HT transporter binding", "conditions": "[^3H]imipramine, Human recombinant CHO cells, read-out: CR6086 Activity at 10µM"}, "5-HT3": {"biological_target": "5-HT3 (Homo sapiens, UniProt P46098)", "sequence (P46098 24-478)": "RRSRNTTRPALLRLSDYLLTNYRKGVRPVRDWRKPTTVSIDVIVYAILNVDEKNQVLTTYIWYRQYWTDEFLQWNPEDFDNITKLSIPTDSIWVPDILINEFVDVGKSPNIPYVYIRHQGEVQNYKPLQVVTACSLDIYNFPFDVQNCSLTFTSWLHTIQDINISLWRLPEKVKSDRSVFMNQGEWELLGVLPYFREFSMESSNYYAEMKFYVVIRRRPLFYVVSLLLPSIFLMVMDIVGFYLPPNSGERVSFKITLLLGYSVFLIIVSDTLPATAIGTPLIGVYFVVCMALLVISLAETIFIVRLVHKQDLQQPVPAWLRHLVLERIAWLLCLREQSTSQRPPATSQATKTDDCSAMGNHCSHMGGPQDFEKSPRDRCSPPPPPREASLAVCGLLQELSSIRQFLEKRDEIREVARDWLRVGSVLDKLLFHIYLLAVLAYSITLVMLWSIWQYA", "test": "Serotonin receptor 5-HT3 binding", "conditions": "[^3H]BRL 43694, Human recombinant CHO cells, read-out: CR6086 Activity at 10µM"}, "CysLT1 (Cys-LTs)": {"biological_target": "CysLT1 (Cys-LTs) (Homo sapiens, UniProt Q9Y271)", "sequence (Q9Y271 whole entry, species assumed)": "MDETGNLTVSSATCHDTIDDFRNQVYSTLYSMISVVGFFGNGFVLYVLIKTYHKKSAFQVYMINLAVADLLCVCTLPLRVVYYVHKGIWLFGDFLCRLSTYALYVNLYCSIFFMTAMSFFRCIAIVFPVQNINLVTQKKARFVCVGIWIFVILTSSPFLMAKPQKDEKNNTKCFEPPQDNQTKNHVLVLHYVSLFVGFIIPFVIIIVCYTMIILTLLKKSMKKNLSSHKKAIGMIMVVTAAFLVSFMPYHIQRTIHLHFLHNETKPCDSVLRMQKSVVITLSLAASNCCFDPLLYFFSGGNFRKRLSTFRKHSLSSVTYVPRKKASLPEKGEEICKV", "test": "Eicosanoid receptor CysLT1 binding", "conditions": "[^3H]LTD4, HEK-293 cells, read-out: CR6086 Activity at 10µM"}, "COX-1": {"biological_target": "T1, COX-1 (Homo sapiens, UniProt P23219)", "T1 construct": "host or cells: Sf9 cells", "T1 sequence (P23219 24-599)": "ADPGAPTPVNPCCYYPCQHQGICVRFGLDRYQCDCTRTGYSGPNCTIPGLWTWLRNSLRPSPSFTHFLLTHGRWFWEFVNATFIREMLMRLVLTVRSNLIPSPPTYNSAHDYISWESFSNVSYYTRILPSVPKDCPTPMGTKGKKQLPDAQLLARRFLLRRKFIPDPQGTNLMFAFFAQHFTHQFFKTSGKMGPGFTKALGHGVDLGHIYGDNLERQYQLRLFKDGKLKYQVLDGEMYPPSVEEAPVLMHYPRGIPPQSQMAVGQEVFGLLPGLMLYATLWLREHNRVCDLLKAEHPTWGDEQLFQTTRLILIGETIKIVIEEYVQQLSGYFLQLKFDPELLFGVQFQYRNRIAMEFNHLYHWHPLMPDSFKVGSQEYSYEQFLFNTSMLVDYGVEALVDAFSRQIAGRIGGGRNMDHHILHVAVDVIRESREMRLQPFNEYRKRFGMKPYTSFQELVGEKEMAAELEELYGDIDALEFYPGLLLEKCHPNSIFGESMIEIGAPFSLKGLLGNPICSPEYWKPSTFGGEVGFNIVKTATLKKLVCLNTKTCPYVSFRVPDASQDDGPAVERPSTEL", "test": "Cyclooxygenase COX-1 enzymatic activity", "type": "biochemical", "conditions": "Sf9 cells, read-out: CR6086 Activity at 10µM"}, "Kv channel": {"test_system": "Kv channel", "test": "Ion channel Kv binding", "conditions": "[^125I]α-dendrotoxin, Rat cerebral cortex"}, "[1]": {"test_system": "arthritic mice (collagen-induced arthritis model)", "test": "CIA in mice, third study (CR6086, MTX, combination): clinical score, oedema, histology", "type": "in vivo, mouse", "conditions": "for CLINICAL SCORE (interquartile range): 30 mg/kg CR6086, median (IQR)"}, "BB (non-selective)": {"test_system": "BB (non-selective)", "test": "BB receptor (non-selective) binding", "conditions": "[^125I][Tyr^4]bombesin, Rat cerebral cortex"}, "5-HT1A": {"biological_target": "5-HT1A (Homo sapiens, UniProt P08908)", "sequence (P08908 whole entry)": "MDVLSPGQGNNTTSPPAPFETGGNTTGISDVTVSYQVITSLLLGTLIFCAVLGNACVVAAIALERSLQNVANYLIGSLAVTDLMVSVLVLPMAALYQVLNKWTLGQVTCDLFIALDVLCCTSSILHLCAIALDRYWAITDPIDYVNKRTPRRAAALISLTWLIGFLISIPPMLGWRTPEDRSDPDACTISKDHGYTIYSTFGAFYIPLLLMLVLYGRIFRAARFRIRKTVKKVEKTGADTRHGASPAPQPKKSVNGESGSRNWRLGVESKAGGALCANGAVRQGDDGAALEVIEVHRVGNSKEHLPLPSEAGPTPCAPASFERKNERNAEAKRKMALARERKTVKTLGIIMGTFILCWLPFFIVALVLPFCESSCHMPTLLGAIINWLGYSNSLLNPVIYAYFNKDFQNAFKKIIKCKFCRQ", "test": "Serotonin receptor 5-HT1A binding", "conditions": "[^3H]8-OH-DPAT, Human recombinant HEK-293 cells, read-out: CR6086 Activity at 10µM"}, "[2]": {"test_system": "arthritic mice (collagen-induced arthritis model)", "test": "CIA in mice, first study: clinical score and paw swelling", "type": "in vivo, mouse", "conditions": "10 days; CR6086 30 and 60 mg/kg, naproxen 60 mg/kg oral once daily; etanercept 10 mg/kg i.p. every other day", "method": "Male DBA/1 mice were immunised by intradermal injection at the base of the tail with an emulsion of 200 μg of bCII in CFA containing 3 mg/ml Mycobacterium tuberculosis. Non-immunised mice served as the negative control of disease. Animals were monitored by visual inspection for appearance of peripheral oedema. […] Upon onset, animals were recruited and randomised. Recruitment was given a cut-off at day 40. Upon recruitment, arthritis clinical score was assigned, and oedema was measured via caliper.\nIn a first study, mice were randomised into the following treatment groups: vehicle, 30 mg/kg CR6086, 60 mg/kg CR6086, 60 mg/kg naproxen and 10 mg/kg etanercept. Animals received the test drugs for 10 days. CR6086 and naproxen were administered orally once daily, whereas etanercept was administered intraperitoneally every other day. Animals treated with vehicle, 60 mg/kg CR6086, naproxen and etanercept were additionally analysed for the proportion of populations of Th17 cells, Th1 cells, regulatory T cells, B cells, macrophages, neutrophils and dendritic cells by fluorescence-activated cell sorting (FACS) after collection of blood, draining lymph nodes and joints.\nOedema measurement was performed every day before treatment, and all animals were blindly scored for clinical signs of arthritis as follows: 0 = normal; 1 = slight swelling and/or erythema; 2 = pronounced oedematous swelling; and 3 = ankyloses and severe swelling. A score of 0.5 was given to swollen toe/toes or when inflammation was localised to one part of the foot. Each limb was measured separately, with a final score based on the sum of the scores from all four paws."}, "[3]": {"biological_target": "Norepinephrine transporter (Homo sapiens, UniProt P23975)", "sequence (P23975 whole entry)": "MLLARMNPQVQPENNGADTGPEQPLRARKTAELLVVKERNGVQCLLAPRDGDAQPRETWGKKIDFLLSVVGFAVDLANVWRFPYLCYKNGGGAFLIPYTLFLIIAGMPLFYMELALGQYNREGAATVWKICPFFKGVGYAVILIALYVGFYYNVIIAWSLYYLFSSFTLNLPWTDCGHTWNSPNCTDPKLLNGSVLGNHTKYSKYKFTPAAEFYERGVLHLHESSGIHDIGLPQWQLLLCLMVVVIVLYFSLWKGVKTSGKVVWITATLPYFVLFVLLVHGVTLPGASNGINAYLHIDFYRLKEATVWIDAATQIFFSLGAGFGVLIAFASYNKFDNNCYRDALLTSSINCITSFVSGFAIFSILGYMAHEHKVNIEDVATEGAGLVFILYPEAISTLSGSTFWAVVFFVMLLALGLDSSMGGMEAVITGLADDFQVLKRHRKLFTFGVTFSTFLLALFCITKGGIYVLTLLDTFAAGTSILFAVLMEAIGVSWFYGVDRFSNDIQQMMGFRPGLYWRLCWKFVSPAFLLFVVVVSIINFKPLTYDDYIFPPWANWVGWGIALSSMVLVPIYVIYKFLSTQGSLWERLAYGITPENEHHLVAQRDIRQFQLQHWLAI", "test": "Norepinephrine transporter binding", "conditions": "[^3H]nisoxetine, Human recombinant CHO cells, read-out: CR6086 Activity at 10µM"}, "EP2": {"biological_target": "T2, EP2 (Homo sapiens, UniProt P43116)", "T2 construct": "host or cells: HEK-293 cells", "T2 sequence (P43116 whole entry)": "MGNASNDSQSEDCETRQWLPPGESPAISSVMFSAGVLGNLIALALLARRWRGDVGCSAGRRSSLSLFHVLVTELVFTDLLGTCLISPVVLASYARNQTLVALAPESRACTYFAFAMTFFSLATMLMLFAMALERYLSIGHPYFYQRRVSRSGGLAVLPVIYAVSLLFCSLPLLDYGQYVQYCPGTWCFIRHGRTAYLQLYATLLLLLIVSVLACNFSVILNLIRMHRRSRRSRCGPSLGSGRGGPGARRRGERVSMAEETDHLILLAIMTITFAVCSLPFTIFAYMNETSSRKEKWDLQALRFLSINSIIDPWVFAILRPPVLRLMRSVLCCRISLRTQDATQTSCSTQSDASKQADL", "test": "Eicosanoid receptor EP2 binding", "conditions": "[^3H]PGE2, HEK-293 cells, read-out: CR6086 Activity at 10µM"}, "NK2": {"biological_target": "NK2 (Homo sapiens, UniProt P21452)", "sequence (P21452 whole entry)": "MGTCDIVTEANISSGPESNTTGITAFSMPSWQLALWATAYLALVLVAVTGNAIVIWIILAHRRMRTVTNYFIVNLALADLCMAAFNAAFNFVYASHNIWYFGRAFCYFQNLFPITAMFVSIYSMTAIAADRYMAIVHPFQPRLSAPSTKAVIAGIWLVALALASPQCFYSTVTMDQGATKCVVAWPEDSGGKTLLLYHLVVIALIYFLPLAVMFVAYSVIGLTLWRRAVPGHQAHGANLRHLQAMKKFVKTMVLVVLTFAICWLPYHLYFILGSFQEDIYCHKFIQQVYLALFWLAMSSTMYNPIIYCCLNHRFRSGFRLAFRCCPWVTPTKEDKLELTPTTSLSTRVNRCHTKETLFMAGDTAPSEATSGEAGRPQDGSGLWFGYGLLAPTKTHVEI", "test": "Neurokinin receptor NK2 binding", "conditions": "[^125I]NKA, Human recombinant CHO cells, read-out: CR6086 Activity at 10µM"}, "AT2": {"biological_target": "AT2 (Homo sapiens, UniProt P50052)", "sequence (P50052 whole entry)": "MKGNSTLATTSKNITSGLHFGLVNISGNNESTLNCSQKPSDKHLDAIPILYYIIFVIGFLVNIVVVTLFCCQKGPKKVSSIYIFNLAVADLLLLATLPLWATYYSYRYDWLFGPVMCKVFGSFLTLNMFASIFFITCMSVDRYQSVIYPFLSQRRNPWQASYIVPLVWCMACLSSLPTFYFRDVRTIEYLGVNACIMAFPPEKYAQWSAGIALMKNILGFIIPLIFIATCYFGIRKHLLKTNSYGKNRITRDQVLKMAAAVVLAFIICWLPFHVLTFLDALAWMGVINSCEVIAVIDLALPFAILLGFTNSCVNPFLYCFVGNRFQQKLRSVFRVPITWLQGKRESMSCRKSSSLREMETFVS", "test": "Angiotensin receptor AT2 binding", "conditions": "[^125I]CGP 42112A, Human recombinant HEK-293 cells, read-out: CR6086 Activity at 10µM"}}, "note": "Marks after values point to notes of the source that are not given here."}
{"smiles": "O=C([O-])c1ccc(C2(NC(=O)[C@H]3CC4(CCN3Cc3ccc(C(F)(F)F)cc3)CC4)CC2)cc1.[Na+]", "note": "[CR6086, Sodium (R)-4-(1-(6-(4-(trifluoromethyl)benzyl)-6-azaspiro[2.5]octane-5-carboxamido)cyclopropyl)benzoate]", "values": [{"measurement": "inhibition at 10 µM", "setting": "5-HT transporter", "value": "< 20", "unit": "%"}, {"measurement": "inhibition at 10 µM", "setting": "5-HT3", "value": "< 20", "unit": "%"}, {"measurement": "inhibition at 10 µM", "setting": "CysLT1 (Cys-LTs)", "value": "< 20", "unit": "%"}, {"measurement": "inhibition at 10 µM", "setting": "COX-1", "value": "< 20", "unit": "%"}, {"measurement": "CR6086 Activity at 10µM", "setting": "Kv channel", "value": "IN (IN = < 20% displacement or inhibition (all tables))"}, {"measurement": "effect on joint histopathology", "setting": "[1]; 16 days, 30 mg/kg CR6086, 3 mg/kg MTX, alone or combined", "value": "significantly improved all histological features of arthritis"}, {"measurement": "CLINICAL SCORE (interquartile range)", "setting": "[1]; DAY 0", "value": "2.0 (2.0 – 2.0) *"}, {"measurement": "CLINICAL SCORE (interquartile range)", "setting": "[1]; DAY 1", "value": "2.0 (2.0 – 2.0)"}, {"measurement": "CLINICAL SCORE (interquartile range)", "setting": "[1]; DAY 2", "value": "2.0 (1.0 – 2.0)"}, {"measurement": "CLINICAL SCORE (interquartile range)", "setting": "[1]; DAY 3", "value": "2.0 (1.0 – 3.1)"}, {"measurement": "CLINICAL SCORE (interquartile range)", "setting": "[1]; DAY 4", "value": "2.0 (1.0 – 2.3)"}, {"measurement": "CLINICAL SCORE (interquartile range)", "setting": "[1]; DAY 5", "value": "2.0 (1.3 – 2.0)"}, {"measurement": "CLINICAL SCORE (interquartile range)", "setting": "[1]; DAY 6", "value": "2.0 (2.0 – 3.0)"}, {"measurement": "CLINICAL SCORE (interquartile range)", "setting": "[1]; DAY 7", "value": "2.0 (1.0 – 3.1)"}, {"measurement": "CLINICAL SCORE (interquartile range)", "setting": "[1]; DAY 8", "value": "2.0 (0.5 – 3.5)"}, {"measurement": "CLINICAL SCORE (interquartile range)", "setting": "[1]; DAY 9", "value": "2.0 (1.0 – 3.3)"}, {"measurement": "CLINICAL SCORE (interquartile range)", "setting": "[1]; DAY 10", "value": "2.5 (2.0 – 4.3)"}, {"measurement": "CLINICAL SCORE (interquartile range)", "setting": "[1]; DAY 11", "value": "4.0 (2.0 – 5.0)"}, {"measurement": "CLINICAL SCORE (interquartile range)", "setting": "[1]; DAY 12", "value": "4.8 (2.8 – 5.1)"}, {"measurement": "CLINICAL SCORE (interquartile range)", "setting": "[1]; DAY 13", "value": "4.5 (3.0 – 5.5)"}, {"measurement": "CLINICAL SCORE (interquartile range)", "setting": "[1]; DAY 14", "value": "3.0 (3.0 – 4.9)"}, {"measurement": "CLINICAL SCORE (interquartile range)", "setting": "[1]; DAY 15", "value": "4.5 (3.0 – 5.0)"}, {"measurement": "CLINICAL SCORE (interquartile range)", "setting": "[1]; DAY 16", "value": "2.0 (1.0 – 3.5)"}, {"measurement": "CR6086 Activity at 10µM", "setting": "BB (non-selective)", "value": "IN (IN = < 20% displacement or inhibition (all tables))"}, {"measurement": "inhibition at 10 µM", "setting": "5-HT1A", "value": "< 20", "unit": "%"}, {"measurement": "effect on disease parameters (visual clinical score, paw swelling) vs vehicle", "setting": "[2]", "value": "significantly improved"}, {"measurement": "inhibition at 10 µM", "setting": "[3]", "value": "< 20", "unit": "%"}, {"measurement": "inhibition at 10 µM", "setting": "EP2", "value": "< 20", "unit": "%"}, {"measurement": "inhibition at 10 µM", "setting": "NK2", "value": "< 20", "unit": "%"}, {"measurement": "inhibition at 10 µM", "setting": "AT2", "value": "< 20", "unit": "%"}]}
